Experimental data published in patent publication US10799456B2, “Multiple drug lipid nanoparticle composition and related methods for extended drug levels in blood and lymph tissue” (priority 2015, dated 2020).
Where two headings read alike, the source gives them in different places.

Legend:
HIV-1 = experiment: microbe, parasite or virus in culture
[1] = Plasma time course of ATV/RTV/TFV lipid nanoparticles in primates; assay type: in vivo, Macaca nemestrina; conditions: for AUC fraction (% total) 8-168 h: male, Macaca nemestrina, in vivo, sc
Experimental: All animal procedures were performed under an approved protocol reviewed by the University of Washington Institutional Animal Care and Use Committee. […] ATV, RTV, and TFV in the plasma were extracted in duplicate and analyzed with a liquid chromatography-mass spectrometry assay with a validated reverse phase HPLC/MS/MS method, similar to that of lopinavir (LPV), RTV, and TFV. […] Antimicrobial agents and chemotherapy. 2014. The linear trapezoidal method was used to calculate the area under the plasma drug concentration-time curve (AUC) for ATV, RTV, and TFV during the time course, which was close to 168 h post-dosing. […] All drugs in buffer and plasma were analyzed using a validated HPLC/MS/MS analytical method, capable of analyzing […], and TFV. The one-step analysis for LPV, RTV, and TFV was published previously. […] Antimicrobial agents and chemotherapy. 2014. Briefly, the HPLC system was outfitted with a Shimadzu 20AD HPLC (Shimadzu Scientific Instruments, Inc., Pleasanton, Calif.). […] Multiple reaction monitoring (MRM) was used to detect transition ions from a specific precursor ion to product ion. The analytes were detected using the following m/z transitions: 705.5/168.2 for ATV, 548.3/392.3 for DRV, 721.3/296.1 for RTV, 288.1/176 for TFV, and 238.1/193.2 for cyheptamide.

[2] = pH dependent drug release from LPV/RTV/TFV lipid nanoparticles; assay type: physicochemical; conditions: 2 hrs
Description: As described above, we established the pH-dependent association of various drugs to lipids at neutral pH and the consequent release of the drugs when pH is lowered. Also described above, this stable integration and pH-dependent release of drugs from the multiple drug lipid nanoparticles was consistent for both lipophilic and water soluble compounds. To confirm the pH dependent release of the individual drugs from the multiple drug combination lipid nanoparticles, LPV/RTV/PMPA(TFV) lipid nanoparticles, assembled as described above, were subjected to different pH environments, and the free drug component of the supernatant was assayed to determine the amount of release. […] When a lipid nanoparticle is localized in tissues and taken up by HIV-infected cells, the incorporated antiretroviral drugs are then released inside the cell organelles (such as endosome and lysosomes) when the pH is lowered.

in vivo = conditions: for concentration at 24 h: sc, Mean drug concentration, Plasma; for LNP/free ratio of plasma AUC 0-168: increase in total drug exposure, fold
Description: Four young adult male macaques (Macaca nemestrina, 2.9-4.0 kg) were housed and cared for by the Washington National Primate Research Center (WaNPRC) under an approved Institutional Animal Care and Use Committee protocol.
The vehicle for the first suspension was bicarbonate-buffered saline with 3% ethanol and 0.2% bovine serum albumin. The vehicle for the second suspension was bicarbonate-buffered saline with 8% DMSO and 0.1% Tween 20.
(§1) Four macaques were divided into two treatment groups (two animals per group). […] Data were normalized to the anti-HIV LNP dose for comparative analysis.
(§2) Plasma was removed, PBMCs were isolated by the density gradient method, and cells were aliquoted into pellets of approximately 2 million PBMCs each. An inguinal lymph node was surgically excised 24 h after drug administration (n=2 per treatment), LNMCs were isolated by passage through a 100-lm nylon cell strainer (Corning, Tewksbury, Mass.), and cells were aliquoted into pellets of approximately 1-2 million LNMCs each. All samples were stored at −80° C. prior to drug analysis.
(§3) Plasma concentrations of all three drugs were analyzed simultaneously by liquid chromatography-tandem mass spectrometry using a recently published method. […] Antimicrob Agents Chemother 2014; 58(5):2675-2680, incorporated herein by reference in its entirety. PBMC and LNMC pellets were lysed using 200 μl water/methanol (1:1 v/v), sonicated for 10 min, and then extracted and analyzed using the same method as cited above. Intracellular concentrations were converted to ng/ml with the assumption that each cell has a volume of 4×10^−9 ml. Alberts B, Johnson A, Lewis J, et al. Molecular Biology of the Cell, 4 ed. Garland Science, New York, 2002, incorporated herein by reference in its entirety.
Data were analyzed by paired two-tailed Student's t-test with p<0.05 considered statistically significant.

[3] = Storage stability at 4° C. (fraction of drug bound, dialysis); assay type: physicochemical
Experimental: To test the long-term stability, the multi-drug nanoparticles were stored under refrigeration at 4° C. and were tested for stability after a prolonged period. The lipid-drug combination particles are stable as determined by both particle size and degree of drug association (Table 12). […] Even the hydrophilic compound, which readily diffuses out of most lipid particles in a number of hours, loses a remarkably low fraction of the associated drug after 8, 12, and 17 months in storage. This exceptional stability provides a substantial advantage for translation to clinical application.

[4] = Drug incorporation/encapsulation (association) efficiency of multi-drug LNPs by dialysis; assay type: physicochemical; conditions: for Degree of incorporation (% total): anti-HIV LNPs LPV/RTV/PMPA
Experimental: The anti-HIV LNP formulations contain both unbound drug and drugs bound to lipid nanoparticles. […] Drugs were quantified by LC-MS/MS using acetonitrile precipitation. Encapsulation efficiency (EE) was calculated as follows: […]

[5] = Intracellular drug concentration in inguinal lymph node mononuclear cells (LNMCs); conditions: for Kp at 24 h / concentration at 24 h: male, Macaca nemestrina, in vivo; for Kp at 24 h: LN/plasma ratio; for concentration at 24 h: sc, Mean drug concentration, Lymph node
Experimental: as §1, §2, §3

HIV-2(287) replication = experiment: Antiviral activity in HIV-infected CEM-174 cells; assay type: cell-based
Experimental: The antiviral activity of the three-drug combination in soluble or LNP form was evaluated in HIV-infected CEM-174 cells as described previously. […] J Acquir Immune Defic Syndr 2003; 34(4):387-397, incorporated herein by reference in its entirety. […] The dose of drugs added to cells represents the sum of bound and unbound drugs in these anti-HIV LNP formulations.

[6] = Human immunodeficiency virus 1, read-out: EC50 in LNP form
[7] = Human immunodeficiency virus 1, read-out: EC50 in free form
[8] = male, Macaca nemestrina, in vivo
[9] = male, Macaca nemestrina, in vivo, Anti-HIV LNP treatment
[10] = male, Macaca nemestrina, in vivo, Free drug treatment
[11] = Combination 1, lipid:LPV:RTV:TFV 115:10:5:15, large scale
[12] = Combination 2, lipid:ATZ:RTV:TFV 115:10:5:15, large scale
[13] = Human immunodeficiency virus 2, CEM174, LPV:RTV:PMPA fixed 1:1:0.5 (m/m/m), LNP form, read-out: EC50 (nM), Drug-lipid nanoparticles with 3 drug combination
[14] = Human immunodeficiency virus 2, CEM174, LPV:RTV:PMPA fixed 1:1:0.5 (m/m/m), free form, read-out: EC50 (nM), Soluble 3 drug combination
[15] = plasma, listed as Tenofovir (PMPA)

CC(C)c1nc(CN(C)C(=O)N[C@H](C(=O)N[C@@H](Cc2ccccc2)C[C@H](O)[C@H](Cc2ccccc2)NC(=O)OCc2cncs2)C(C)C)cs1 [Ritonavir (RTV), Ritonavir]
EC50 (HIV-1; [6]): 0.03 ± 0.0008 µM
EC50 (HIV-1; [7]): 0.098 ± 0.0003 µM
AUC fraction (% total) 8-168 h [1]: 80.4%
AUC 0-8 h ([1]; plasma, average of two primates, sc ATV/RTV/TFV LNPs 25/12.8/15.3 mg/kg): 0.3391 µg·h/mL
% Drug released from anti-HIV nanoparticles ([2]; pH 4.0, 37° C.): 94.9 ± 0.7%
% Drug released from anti-HIV nanoparticles ([2]; pH 5.5, 37° C.): 29.0 ± 11.6%
% Drug released from anti-HIV nanoparticles ([2]; pH 6.5, 37° C.): 3.2 ± 4.9%
% Drug released from anti-HIV nanoparticles ([2]; pH 7.4, 37° C.): 2 ± 1%
AUC 0-8 (%) of total, LNP (in vivo; [8]): 11.3%
AUC 8-168 (%) of total, LNP (in vivo; [8]): 88.7%
AUC fraction (% of total) Anti-HIV LNP 24-168 h (in vivo; [8]): 57.0 ± 12.5%
concentration at 24 h (in vivo; [9]): 0.164 ± 0.116 µg/mL
concentration at 24 h (in vivo; [10]): 0.0059 ± 0.0093 µg/mL
Fraction of drug bound in multi-drug nanoparticles (% total) ([3]; 0 months): 88.30 ± 7.38%
Fraction of drug bound in multi-drug nanoparticles (% total) ([3]; 8 months): 93.01 ± 7.70%
Fraction of drug bound in multi-drug nanoparticles (% total) ([3]; 12 months): 94.91 ± 13.66%
Fraction of drug bound in multi-drug nanoparticles (% total) ([3]; 17 months, one batch): 90.50%
% particle-bound [4, 11]: (83.4 ± 1.4) %
% particle-bound [4, 12]: (88.5 ± 3.1) %
Degree of incorporation (% total) ([4]; clinical scale (15-40 ml)): 90.7 ± 7.4%
Degree of incorporation (% total) ([4]; laboratory scale (0.1-0.4 ml)): 74.2 ± 8.4%
Kp at 24 h ([5]; Free drug treatment, 24 h): 5.5
concentration at 24 h ([5]; Anti-HIV LNP treatment): 1.64 ± 0.019 µg/mL
concentration at 24 h ([5]; Free drug treatment): 0.0326 ± 0.0326 µg/mL
EC50 (HIV-2(287) replication; [13]): 3 ± 0.8 nM
EC50 (HIV-2(287) replication; [14]): 98 ± 0.3 nM
EC50 (HIV-2(287) replication; Human immunodeficiency virus 2, CEM174, read-out: EC50 (nM), Single agent controls, single agent): 530 ± 0.2 nM
EC50 (HIV-2(287) replication; read-out: EC50 (nM), Single agent controls, single agent): 1040 nM

C[C@H](Cn1cnc2c(N)ncnc21)OCP(=O)(O)O [Tenofovir (TFV), [(2R)-1-(6-aminopurin-9-yl)propan-2-yl]oxymethylphosphonic acid]
EC50 (HIV-1; [6]): 0.015 ± 0.0001 µM
EC50 (HIV-1; [7]): 0.049 ± 0.0002 µM
AUC fraction (% total) 8-168 h [1]: 97.4%
% Drug released from anti-HIV nanoparticles ([2]; pH 4.0, 37° C.): 28.7 ± 0.9%
% Drug released from anti-HIV nanoparticles ([2]; pH 5.5, 37° C.): 11.2 ± 1.5%
% Drug released from anti-HIV nanoparticles ([2]; pH 6.5, 37° C.): 15.9 ± 5.4%
% Drug released from anti-HIV nanoparticles ([2]; pH 7.4, 37° C.): 0 ± 2%
AUC LNP/free ratio (in vivo; 0-168 h): 7.0
Ratio comparison between treatments (LNP/free), Plasma (in vivo; 24 h): 3992.8
LNP/free ratio of plasma AUC 0-168 (in vivo): 7.0
LNP/free ratio of plasma AUC 0-168 (in vivo; listed as TFV): 7
AUC 0-8 (%) of total, LNP (in vivo; [8]): 9.1%
AUC 8-168 (%) of total, LNP (in vivo; [8]): 90.9%
concentration at 24 h (in vivo; [9]): 3.6 ± 3.51 µg/mL
concentration at 24 h (in vivo; [10]): 0.0009 ± 0.0011 µg/mL
AUC fraction (% of total) Anti-HIV LNP 0-24 h (in vivo; plasma): 48.8 ± 33.7%
AUC fraction (% of total) Free drug 0-24 h (in vivo; plasma): 99.9 ± 0.2%
AUC Free drug 0-168 h (in vivo; plasma, sc 25/14.3/17.1 mg/kg LPV/RTV/PMPA, four animals): 56.6 ± 17.04 µg·h/mL
AUC fraction (% of total) Anti-HIV LNP 24-168 h (in vivo; plasma, listed as PMPA): 51.2%
AUC fraction (% of total) Free drug 24-168 h (in vivo; plasma, listed as PMPA): 0.1%
AUC fraction (% of total) Anti-HIV LNP 24-168 h (in vivo; [15]): 51.2 ± 33.7%
AUC fraction (% of total) Free drug 24-168 h (in vivo; [15]): 0.1 ± 0.2%
Fraction of drug bound in multi-drug nanoparticles (% total) ([3]; 0 months): 9.32 ± 3.79%
Fraction of drug bound in multi-drug nanoparticles (% total) ([3]; 8 months): 7.72 ± 2.95%
Fraction of drug bound in multi-drug nanoparticles (% total) ([3]; 12 months): 8.79 ± 0.92%
Fraction of drug bound in multi-drug nanoparticles (% total) ([3]; 17 months, one batch): 7.30%
% particle-bound [4, 11]: (9.9 ± 2.9) %
% particle-bound [4, 12]: (7.9 ± 1.8) %
% particle-bound ([4]; Combination 3, lipid:LPV:EFV:TFV 200:26.6:20:40, large scale): (7.9) %
stable lipid association ([4]; across drug combinations): 8-10%
Degree of incorporation (% total) ([4]; clinical scale (15-40 ml), listed as PMPA): 12%
Degree of incorporation (% total) ([4]; clinical scale (15-40 ml), listed as Tenofovir): 11.9 ± 3.0%
Degree of incorporation (% total) ([4]; laboratory scale (0.1-0.4 ml)): 11.8 ± 5.1%
LNP/free ratio, mononuclear cells of inguinal nodes ([5]; 24 h): 0.7
Ratio comparison between treatments (LNP/free), Lymph node ([5]; 24 h): 0.7
LNP/free ratio, mononuclear cells of inguinal nodes ([5]; 24 h, listed as TFV): 0.7
Kp at 24 h ([5]; Anti-HIV LNP treatment, 24 h): 0.1
Kp at 24 h ([5]; Free drug treatment, 24 h): 284
concentration at 24 h ([5]; Anti-HIV LNP treatment): 0.19 ± 0.0228 µg/mL
concentration at 24 h ([5]; Free drug treatment): 0.256 ± 0.0315 µg/mL
EC50 (HIV-2(287) replication; [13]): 1.5 ± 0.1 nM
EC50 (HIV-2(287) replication; [14]): 49 ± 0.2 nM
EC50 (HIV-2(287) replication; read-out: EC50 (nM), Single agent controls, single agent, listed as PMPA): 1150 ± 0.7 nM
EC50 (HIV-2(287) replication; read-out: EC50 (nM), Single agent controls, single agent, listed as Tenofovir (PMPA/TFV)): 100 to 6000 nM
